The values that follow are results of earlier work, collected in US11883631B2 (priority 2015, dated 2024).

A value given as a limit tells only on which side of the number the result lay.

The conditions of series [1]: 10 mg/s vs 2 mg/s.
The conditions of series [2]: in vivo.
The conditions of series [3]: in vivo. The source holds these as a separate data set.
The conditions of series [4]: EEG monitor effect site; 18-60 yr.

For `CC(C)c1cccc(C(C)C)c1O` [propofol], the “Reductions in systolic blood pressure (SBP)” value (during induction of anesthesia with propofol) was “greater than 25%”. For the same compound, the “plasma concentration at which propofol may significantly decrease SBP” value (patients aged 20-85 yr, effect more evident in elderly (>70 yr)) was > 10000 ng/mL. In series [1], the “drop in mean arterial pressure, higher vs lower infusion rate” value is reported as “larger drop in mean arterial pressure”. Besides, in series [2], the “Propofol concentration associated with awakening from anesthesia” value was < 1.8 µg/mL. Moreover, the “effect-site concentration at burst suppression onset” value in series [3] is recorded as “higher than 8 μg/ml”. For the same compound, the ke0 in series [4] was 0.456 min⁻¹.
